Source: patent US11273146B2, “Benzofuran derivatives and their use as bromodomain inhibitors” (GLAXOSMITHKLINE INTELLECTUAL PROPERTY (NO. 2) LIMITED, priority 2017, dated 2022)

Experiments:
BRD4 BD2 = biological target: T1, BRD4 BD2 (Homo sapiens, UniProt O60885, Y97A); test: TR-FRET competition assay, BRD4 BD2; format: binding; settings: single mutant tandem BRD4, read-out: pIC50 in the BRD4 BD2 assay (converted)
T1 construct: BRD4 (1-477) (Y97A) and (Y390A); made in house; host or cells: E. coli (pET15b vector)
Protocol: Bromodomain binding was assessed utilising a time resolved fluorescent resonance energy transfer (TR-FRET) competition assay. To enable this approach a known, high affinity, pan-BET interacting small molecule was labelled with Alexa Fluor® 647, which is a far-red-fluorescent dye (Reference Compound X). Reference Compound X acts as a reporter of bromodomain binding and is the acceptor fluorophore component of the TR-FRET pair. Europium chelate, conjugated to an anti-6*His antibody, was utilised as the donor fluorophore in the TR-FRET pair. […] A TR-FRET signal is generated when the donor and acceptor fluorophores are in close proximity, between 20-80 Å, which is enabled in this assay by binding of Reference Compound X to the bromodomain protein.
If the acceptor fluorophore is in close proximity then energy transfer can occur, which leads to emission of Alexa Fluor® 647 at λ665 nm. In the presence of competitor compound, Reference Compound X can be displaced from binding to the bromodomain. If displacement occurs, the acceptor fluorophore is no longer in proximity to the donor fluorophore, which prevents fluorescent energy transfer and, subsequently, a loss of Alexa Fluor® 647 emission at λ665 nm.
The competition of the compounds of formula (I) with Reference Compound X for binding to the BET family (BRD2, BRD3, BRD4 and BRDT) was assessed using protein truncates spanning both bromodomain 1 (BD1) and bromodomain 2 (BD2). In order to monitor differential binding to either BD1 or BD2, single residue mutations of key tyrosines to alanine were made in the acetyl lysine binding pockets. To validate this approach, a double residue mutant tandem domain protein was produced for each of the BET family members. Utilising a Fluorescence Polarisation approach, binding affinities for each of the single and double mutants for Reference Compound X were determined. […] Final purification was completed by Superdex 200 prep grade size exclusion column. Purified protein was stored at −80° C. in 20 mM HEPES pH 7.5 and 100 mM NaCl.
Protocol for Bromodomain BRD2, 3, 4 and T, BD1+BD2 mutant TR-FRET competition assays: All assay components were dissolved in an assay buffer composing of 50 mM HEPES pH7.4, 50 mM NaCl, 5% Glycerol, 1 mM DTT and 1 mM CHAPS. Reference Compound X was diluted, in assay buffer containing 20 nM single mutant, tandem bromodomain protein, to a concentration equivalent to 2*Kd for this bromodomain. The solution containing bromodomain and Reference Compound X was added to dose response dilutions of test compound or DMSO vehicle (a maximum of 0.5% DMSO is used in this assay) in Greiner 384 well black low volume microtitre plates and subsequently incubated for 30 minutes at room temperature. An equal volume of 3 nM of anti-6*His Europium chelate was added to all wells, followed by a further 30 minute incubation at room temperature. TR-FRET was detected using a Perkin Elmer Multimode plate reader, by exciting the donor fluorophore at λ337 nm and subsequently, after a delay of 50 μsecs, measuring emission of the donor and acceptor fluorophores at λ615 nm and λ665 nm, respectively. In order to control these assays, 16 replicates each of uninhibited (DMSO vehicle) and inhibited (10*IC50 concentrations of Example 11 of WO 2011/054846A1) TR-FRET assays were included on every microtitre plate.

[1] = system: BET family (BRD2, BRD3, BRD4 and BRDT) tandem bromodomain proteins; test: Fluorescence Polarisation binding of Reference Compound X to mutant tandem BET proteins; set-up: species or system Human
Protocol: The competition of the compounds of formula (I) with Reference Compound X for binding to the BET family (BRD2, BRD3, BRD4 and BRDT) was assessed using protein truncates spanning both bromodomain 1 (BD1) and bromodomain 2 (BD2). In order to monitor differential binding to either BD1 or BD2, single residue mutations of key tyrosines to alanine were made in the acetyl lysine binding pockets. To validate this approach, a double residue mutant tandem domain protein was produced for each of the BET family members. Utilising a Fluorescence Polarisation approach, binding affinities for each of the single and double mutants for Reference Compound X were determined. […] The affinities of the single mutated bromdomain tandem proteins for Reference Compound X were equi-potent with the corresponding non-mutated BET protein. […] Final purification was completed by Superdex 200 prep grade size exclusion column. Purified protein was stored at −80° C. in 20 mM HEPES pH 7.5 and 100 mM NaCl. Protein identity was confirmed by peptide mass fingerprinting and predicted molecular weight confirmed by mass spectrometry.

Structure (SMILES)	IC50 (BRD4 BD2) [µM]	reduction in Kd (affinity), double mutant tandem proteins versus non mutated, wild type tandem BET proteins ([1]; double residue (Tyr to Ala) mutant tandem domain proteins) [fold]	affinities of the single mutated bromodomain tandem proteins versus the corresponding non-mutated BET protein ([1]; single mutated tandem proteins)
CNC(=O)c1cc(C(=O)NCCn2cnnc2)cc2c1OCC2c1ccccc1 (centres unmarked) [Example 110, N^5-(2-(4H-1,2,4-triazol-4-yl)ethyl)-N^7-methyl-3-phenyl-2,3-dihydrobenzofuran-5,7-dicarboxamide]	1 to 100	–	–
CNC(=O)c1cc(C(=O)N[C@H]2[C@@H]3COC[C@@H]32)cc2c1OC[C@@H]2c1ccc(OCCN)cc1 (single isomer, unassigned) [Example 111, (R*)-3-(4-(2-aminoethoxy)phenyl)-N^5-((1R,5S,6r)-3-oxabicyclo[3.1.0]hexan-6-yl)-N^7-methyl-2,3-dihydrobenzofuran-5,7-dicarboxamide]	1 to 100	–	–
CCNC(=O)c1cc(C(=O)NC)c2c(c1)C(c1cccc(C(=O)OCC)c1)CO2 (single isomer, unassigned) [Example 113, (R*)-ethyl 3-(5-(ethylcarbamoyl)-7-(methylcarbamoyl)-2,3-dihydrobenzofuran-3-yl)benzoate]	1 to 100	–	–
CNC(=O)c1cc(C(=O)NC2CC2)cc2c1OCC2C1CCOCC1 (centres unmarked) [Example 104, N^5-cyclopropyl-N^7-methyl-3-(tetrahydro-2H-pyran-4-yl)-2,3-dihydrobenzofuran-5,7-dicarboxamide]	1 to 100	–	–
COc1ccc2c(c1)C(c1ccc(Cl)cc1)=N[C@@H](CC(=O)NCCCCCNC(=O)CCCCCC1(C)/C(=C/C=C/C=C/C3=[N+](CCCCS(=O)(=O)O)c4ccc(S(=O)(=O)O)cc4C3(C)C)N(CCCCS(=O)(=O)[O-])c3ccc(S(=O)(=O)O)cc31)c1nnc(C)n1-2 (some centres unmarked) [Reference Compound X]	–	> 1000	equi-potent

The next lines start with results.

IC50 (BRD4 BD2) [µM]	Structure (SMILES)	reduction in Kd (affinity), double mutant tandem proteins versus non mutated, wild type tandem BET proteins ([1]; double residue (Tyr to Ala) mutant tandem domain proteins) [fold]	affinities of the single mutated bromodomain tandem proteins versus the corresponding non-mutated BET protein ([1]; single mutated tandem proteins)
1 to 100	CNC(=O)c1cc(C(=O)Nc2nnn(C)n2)cc2c1OC[C@H]2c1ccccc1 [Example 123, (S)-N^7-methyl-N^5-(2-methyl-2H-tetrazol-5-yl)-3-phenyl-2,3-dihydrobenzofuran-5,7-dicarboxamide]	–	–
1 to 100	CNC(=O)c1cc(C(=O)NC2CC2)cc2c1OCC2C1CCOCC1 (single isomer, unassigned) [Example 120, (R*)-N^5-cyclopropyl-N^7-methyl-3-(tetrahydro-2H-pyran-4-yl)-2,3-dihydrobenzofuran-5,7-dicarboxamide]	–	–
1 to 100	CNC(=O)c1cc(C(=O)Nc2nccn2C)cc2c1OCC2c1ccccc1 (centres unmarked) [Example 118, N^7-methyl-N^5-(1-methyl-1H-imidazol-2-yl)-3-phenyl-2,3-dihydrobenzofuran-5,7-dicarboxamide]	–	–
1 to 100	CNC(=O)c1cc(C(=O)N[C@H]2C[C@@H]2C)cc2c1OCC2C1CCOCC1 (single isomer, unassigned) [Example 121, (R*)-N^7-methyl-N^5-((1S,2S)-2-methylcyclopropyl)-3-(tetrahydro-2H-pyran-4-yl)-2,3-dihydrobenzofuran-5,7-dicarboxamide]	–	–
1 to 100	CNC(=O)c1cc(C(=O)NCCc2cnn(C)c2)cc2c1OCC2c1ccc(F)cc1 (single isomer, unassigned) [Example 119, (R*)-3-(4-fluorophenyl)-N^7-methyl-N^5-(2-(1-methyl-1H-pyrazol-4-yl)ethyl)-2,3-dihydrobenzofuran-5,7-dicarboxamide]	–	–
